In experiment [1] the test system is B. subtilis 168 (pBMV4). The experiment is described as follows: paper disk growth inhibition on agar medium, B. subtilis 168 (pBMV4). It is filed as cell-based, Bacillus subtilis. The note with it: 50 μl of 5 μg/ml fosmidomycin on paper disk, 37° C. overnight. How it is done: The B. subtilis 168 (pBMV4) was subjected to shaking culturing at 37° C. overnight in 5 ml of LB liquid medium containing 3.4 μg/ml chloramphenicol. […]
The gene on the pBMV4 is expressed only in the presence of IPTG 50 μl of aqueous solution of 5 μg/ml fosmidomycin was dropped on a paper disk, and then the paper disk was placed on the above two types of agar mediums, followed by culturing at 37° C. overnight.

In experiment [2] the test system is B. subtilis delypgA (pBMV4). Put plainly: paper disk growth inhibition on agar medium, B. subtilis delypgA (pBMV4). It is filed as cell-based, Bacillus subtilis. The note with it: 50 μl of 5 μg/ml fosmidomycin on paper disk, 37° C. overnight. The protocol:
The B. subtilis delypgA (pBMV4) was subjected to shaking culturing at 37° C. overnight in 5 ml of LB liquid medium containing 3.4 μg/ml chloramphenicol.
One thousandth amount of the above culture solution was added into Nutrient Broth “Eiken” (Eiken Chemical Co., Ltd.) containing 3.4 μg/ml chloramphenicol to prepare an agar medium.
One thousandth amount of the above culture solution was added into Nutrient Broth “Eiken” containing 1 mM IPTG, 3.4 μg/ml chloramphenicol and 0.02% mevalonic acid to prepare an agar medium. The gene on the pBMV4 is expressed only in the presence of IPTG
50 μl of aqueous solution of 5 μg/ml fosmidomycin was dropped on a paper disk, and then the paper disk was placed on the above two types of agar mediums, followed by culturing at 37° C. overnight.

Where [3] appears, read: medium to which mevalonic acid and IPTG were added.
Setting [4] is: medium to which mevalonic acid and IPTG were not added.

As to `O=CN(O)CCCP(=O)(O)O` [fosmidomycin], the growth inhibition ring entry in experiment [1] (setting [3]) is listed as “not observed”; in experiment [1] (setting [4]), “observed”; in experiment [2] (setting [3]), “not observed”; in experiment [2] (setting [4]), “observed”.
